One experiment relates to Tubulin. In words: Compound was evaluated for the in vitro concentration required to produce 50% stimulation of the microtubule assembly. Particulars: read-out: ED50 (the source's name).
Another experiment deals with B16. The experiment is described as follows: Compound was evaluated for the concentration which inhibits B16 melanoma cell proliferation by 50%. The format is functional. The following applies: Mus musculus, read-out: ED50 (the source's name).

As to `CC(=O)O[C@H]1C(=O)[C@]2(C)[C@@H](OC(=O)c3ccc(N=[N+]=[N-])cc3)C[C@H]3OC[C@@]3(OC(C)=O)[C@H]2[C@H](OC(=O)c2ccccc2)[C@]2(O)C[C@H](OC(=O)[C@H](O)C(NC(=O)c3ccccc3)c3ccccc3)C(C)=C1C2(C)C` (some centres undefined), the values for the EC50 in the experiment with Tubulin and with B16 were 15000 nM and 957 nM, respectively.

With `CC(=O)O[C@H]1C(=O)[C@@]2(C)[C@H]([C@H](OC(=O)c3ccccc3)[C@]3(O)C[C@H](OC(=O)[C@H](O)[C@@H](NC(=O)c4ccccc4)c4ccccc4)C(C)=C1C3(C)C)[C@]1(OC(C)=O)CO[C@@H]1C[C@@H]2O` [PACLITAXEL], the EC50 was 700 nM in the experiment with Tubulin and 31.5 nM in the experiment with B16.

The values are drawn from ChEMBL document CHEMBL1126436, “Taxol Photoaffinity Label: 7-(p-Azidobenzoyl)taxol Synthesis and Biological Evaluation” (1992).
